Entries after “also recorded” stand apart in the source; their conditions may differ.
Experiments:
[1] = molecular target: Oseltamivir resistant (with H274Y mutation) neuraminidase (Influenza A virus, UniProt P03468, H260Y); type: biochemical, recombinant PR8 virus with H274Y mutation
[2] = tested on: PR8 resistant recombinant virus with H274Y mutation in MDCK cells; type: cell-based

| Structure (SMILES) | NA inhibitory activity on oseltamivir resistant NA [1] | other results |
| --- | --- | --- |
| COC(=O)C1CC(=O)c2oc(=O)c3cc(O)c(O)c(O)c3c21 (stereo not shown) [B15, Methyl brevifolin carboxylate] | can obviously inhibit NA activities |  |
| CCOC(=O)C1=C[C@@H](OC(CC)CC)[C@H](NC(C)=O)[C@@H](N)C1 [Oseltamivir] |  | Anti-virus effect on resistant virus with NA H274Y mutation in MDCK cells [2]: didn't show obvious anti-virus effects |
| O=C(/C=C/c1ccc(O)cc1)OC[C@H]1O[C@@H](Oc2c(-c3ccc(O)cc3)oc3cc(O)cc(O)c3c2=O)[C@H](O)[C@@H](O)[C@@H]1O [B23, Tiliroside] |  | Effect on replication of oseltamivir resistant (H274Y) PR8 virus in MDCK cells [2]: obviously reduce; also recorded: greatly reduce |
| O=c1oc2c(O)c(O)cc3c(=O)oc4c(O)c(O)cc1c4c23 [B21, Ellagic acid] | can obviously inhibit NA activities |  |
